Measurements published in ChEMBL document CHEMBL6087404, “Naphthoindole-2-carboxamides as a lipophilic chemotype of hetarene-anthraquinones potent against P-gp resistant tumor cells” (Eur J Med Chem, 2025).
Calls of active or inactive are those of the source. The rule behind the calls is not given here.

Experiments:
A549 = experiment: Antiproliferative activity against human A549 cells incubated for 72 hrs by MTT assay; type: functional, cell-based; conditions: A549, 72 h
K562 [1] = experiment: Antiproliferative activity against human K562 cells incubated for 72 hrs by MTT assay; type: functional, cell-based; conditions: K562, 72 h
K562/4 [2] = experiment: Antiproliferative activity against human K562/4 cells incubated for 72 hrs by MTT assay; type: functional, cell-based; conditions: K562/4, 72 h
[3] = Resistance index, ratio of IC50 for human K562/4 cells to IC50 for human K562 cells; type: functional
[4] = Drug uptake in P-gp+ human K562/4 cells at 2 uM incubated for 3 to 120 hrs by flow cytometry; type: ADME, cell-based; conditions: k562/4, 2 µM, time 3-120 hrs
[5] = Drug uptake in verapamil-treated human K562/4 cells at 2 uM incubated for 3 to 120 hrs by flow cytometry relative to wild-type culture; type: ADME, cell-based; conditions: k562/4, 2 µM, time 3-120 hrs
[6] = Drug uptake in verapamil-treated human K562i/S9 cells at 2 uM incubated for 3 to 120 hrs by flow cytometry relative to wild-type culture; type: ADME, cell-based; conditions: k562i/s9, 2 µM, time 3-120 hrs
[7] = Drug uptake in human K562/4 cells assessed as fold increase at 2 uM incubated for 3 to 120 hrs by flow cytometry relative to LCTA-2640; type: ADME, cell-based; conditions: k562/4, 2 µM, time 3-120 hrs
[8] = Drug uptake in human K562i/S9 cells assessed as fold increase at 2 uM incubated for 3 to 120 hrs by flow cytometry relative to LCTA-2640; type: ADME, cell-based; conditions: k562i/s9, 2 µM, time 3-120 hrs
[9] = Drug uptake in P-gp+ human […] cells at 3 uM incubated for 10 mins by confocal microscopy; type: ADME, cell-based; conditions: k562/4, 10 min
[10] = Drug uptake in human HCT-116 cells at 3 uM incubated for 10 mins by confocal microscopy; type: ADME, cell-based; conditions: hct-116, 10 min
[11] = Drug uptake in cytoplasmic membrane of human HCT-116 cells at 3 uM incubated for 1 hr by confocal microscopy; type: ADME, cell membranes, Cytoplasm membrane; conditions: hct-116, 1 h
[12] = Drug uptake in nuclear membrane of human HCT-116 cells at 3 uM incubated for 1 hr by confocal microscopy; type: ADME, cell membranes; conditions: hct-116, 1 h
[13] = Drug uptake in lysosome of human HCT-116 cells at 3 uM incubated for 1 hr by LysoTracker Deep Red dye based confocal microscopy; type: ADME, subcellular; conditions: hct-116, 1 h
[14] = Drug uptake in mitochondria of human HCT-116 cells at 3 uM incubated for 1 hr by MitoTracker Red FM dye based confocal microscopy; type: ADME; conditions: hct-116, 1 h
K562 [15] = experiment: Induction of apoptosis in human K562 cells assessed as viable cells at 1 uM incubated for 24 hrs by Annexin V-FITC/PI staining based flow cytometry (reference value: 85.9 %); type: functional; conditions: read-out: Activity
K562 [16] = experiment: Induction of apoptosis in human K562 cells assessed as early apoptotic cells at 1 uM incubated for 24 hrs by Annexin V-FITC/PI staining based flow cytometry (reference value: 0.8 %); type: functional
K562/4 [17] = experiment: Induction of apoptosis in human K562/4 cells assessed as viable cells at 1 uM incubated for 24 hrs by Annexin V-FITC/PI staining based flow cytometry (reference value: 86 %); type: functional; conditions: read-out: Activity
K562/4 [18] = experiment: Induction of apoptosis in human K562/4 cells assessed as early apoptotic cells at 1 uM incubated for 24 hrs by Annexin V-FITC/PI staining based flow cytometry (reference value: 1 %); type: functional
K562/4 [19] = experiment: Induction of apoptosis in human K562/4 cells assessed as late apoptotic cells at 1 uM incubated for 24 hrs by Annexin V-FITC/PI staining based flow cytometry (reference value: 2.5 %); type: functional
K562/4 [20] = experiment: Induction of apoptosis in human K562/4 cells assessed as viable cells at 1 uM incubated for 24 hrs by Annexin V-FITC/PI staining based flow cytometry (reference value: 10.8 %); type: functional; conditions: read-out: Activity
K562 [21] = experiment: Induction of apoptosis in human K562 cells assessed as viable cells at 1 uM incubated for 48 hrs by Annexin V-FITC/PI staining based flow cytometry (reference value: 85.9 %); type: functional; conditions: read-out: Activity
K562 [22] = experiment: Induction of apoptosis in human K562 cells assessed as early apoptotic cells at 1 uM incubated for 48 hrs by Annexin V-FITC/PI staining based flow cytometry (reference value: 0.8 %); type: functional
K562 [23] = experiment: Induction of apoptosis in human K562 cells assessed as late apoptotic cells at 1 uM incubated for 48 hrs by Annexin V-FITC/PI staining based flow cytometry (reference value: 2.5 %); type: functional
K562/4 [24] = experiment: Induction of apoptosis in human K562/4 cells assessed as viable cells at 1 uM incubated for 48 hrs by Annexin V-FITC/PI staining based flow cytometry (reference value: 86 %); type: functional; conditions: read-out: Activity
K562/4 [25] = experiment: Induction of apoptosis in human K562/4 cells assessed as early apoptotic cells at 1 uM incubated for 48 hrs by Annexin V-FITC/PI staining based flow cytometry (reference value: 1 %); type: functional
K562/4 [26] = experiment: Induction of apoptosis in human K562/4 cells assessed as late apoptotic cells at 1 uM incubated for 48 hrs by Annexin V-FITC/PI staining based flow cytometry (reference value: 2.5 %); type: functional
K562/4 [27] = experiment: Induction of apoptosis in human K562/4 cells assessed as viable cells at 1 uM incubated for 48 hrs by Annexin V-FITC/PI staining based flow cytometry (reference value: 10.8 %); type: functional; conditions: read-out: Activity
K562 [28] = experiment: Effect on cell cycle distribution in human K562 cells assessed as cells with fragmented DNA at sub-G1 phase at 0.75 uM incubated for 48 hrs by PI staining based flow cytometry (reference value: 3 %); type: functional
K562 [29] = experiment: Effect on cell cycle distribution in human K562 cells assessed as cells with fragmented DNA at sub-G1 phase at 0.75 uM incubated for 72 hrs by PI staining based flow cytometry (reference value: 3 %); type: functional
K562 [30] = experiment: Effect on cell cycle distribution in human K562 cells assessed as cells with fragmented DNA at sub-G1 phase at 1 uM incubated for 24 hrs by PI staining based flow cytometry (reference value: 3 %); type: functional
K562 [31] = experiment: Effect on cell cycle distribution in human K562 cells assessed as cells with fragmented DNA at sub-G1 phase at 1 uM incubated for 48 hrs by PI staining based flow cytometry (reference value: 3 %); type: functional
K562 [32] = experiment: Effect on cell cycle distribution in human K562 cells assessed as cells with fragmented DNA at sub-G1 phase at 1 uM incubated for 72 hrs by PI staining based flow cytometry (reference value: 3 %); type: functional
K562/4 [33] = experiment: Effect on cell cycle distribution in human K562/4 cells assessed as cells with fragmented DNA at sub-G1 phase at 0.75 uM incubated for 24 hrs by PI staining based flow cytometry (reference value: 4 %); type: functional
K562/4 [34] = experiment: Effect on cell cycle distribution in human K562/4 cells assessed as cells with fragmented DNA at sub-G1 phase at 1 uM incubated for 48 hrs by PI staining based flow cytometry (reference value: 4 %); type: functional
K562/4 [35] = experiment: Effect on cell cycle distribution in human K562/4 cells assessed as cells with fragmented DNA at sub-G1 phase at 1 uM incubated for 72 hrs by PI staining based flow cytometry (reference value: 4 %); type: functional
DNA = experiment: Binding affinity to pBR322 plasmid DNA (unknown origin) assessed as effect on electrophoretic mobility of DNA at 1 to 40 uM incubated for 30 mins; type: nucleic-acid assay; conditions: Escherichia coli, dose 1-40 µM

CS(=O)(=O)O.N[C@H]1CCN(C(=O)c2cc3c(O)c4c(c(O)c3[nH]2)C(=O)c2ccccc2C4=O)C1
IC50 (A549): 7.7 µM | IC50 (K562 [1]): 0.5 µM | IC50 (K562/4 [2]): 1.2 µM | Ratio IC50 [3]: 2.4 | Drug uptake [4]: Active | Drug uptake [5]: 80% | Drug uptake [6]: 50% | fold change (FC) [7]: <= 2 | fold change (FC) [8]: <= 2 | Drug uptake [9]: Active | Drug uptake [10]: Active | Drug uptake [11]: Not_active | Drug uptake [12]: Not_active | Drug uptake [13]: Active | Drug uptake [14]: Active | viability at 1 µM (K562 [15]): 29% | Activity (K562 [16]): 0.2% | viability at 1 µM (K562/4 [17]): 30.1% | Activity (K562/4 [18]): 0.6% | Activity (K562/4 [19]): 20.4% | viability at 1 µM (K562/4 [20]): 48.9% | viability at 1 µM (K562 [21]): 11.9% | Activity (K562 [22]): 0.5% | Activity (K562 [23]): 43.8% | viability at 1 µM (K562/4 [24]): 3.4% | Activity (K562/4 [25]): 0.1% | Activity (K562/4 [26]): 17.5% | viability at 1 µM (K562/4 [27]): 79% | Activity (K562 [28]): 26% | Activity (K562 [29]): 30% | Activity (K562 [30]): 42% | Activity (K562 [31]): 84% | Activity (K562 [32]): 97% | Activity (K562/4 [33]): 8% | Activity (K562/4 [34]): 54% | Activity (K562/4 [35]): 89% | Activity (DNA): inactive
